Numbers after ± are expanded uncertainties.
Experiment: xn = mol fraction of the nth substance listed
Conditions: 101 kPa, Liquid

CC(O)CO (configuration not stated) [1,2-propanediol] + CCCCOC(C)=O
Conditions	mass density, 298.15 K [kg/m3]	mass density, 303.15 K [kg/m3]	mass density, 308.15 K [kg/m3]	mass density, 313.15 K [kg/m3]	speed of sound, 298.15 K [m/s]	speed of sound, 308.15 K [m/s]	viscosity, 298.15 K [mPa·s]	viscosity, 308.15 K [mPa·s]
x2 = 0.0445	1020.01 ± 0.36	1016.1 ± 0.37	1012.28 ± 0.38	1008.28 ± 0.39	1467 ± 2	1429 ± 2	31.87 ± 0.44	18.51 ± 0.34
x2 = 0.1493	993.58 ± 0.45	989.44 ± 0.46	985.19 ± 0.48	980.98 ± 0.49	1407 ± 2	1372 ± 2	16.1 ± 0.25	10.19 ± 0.16
x2 = 0.2487	972.28 ± 0.53	968.01 ± 0.55	963.42 ± 0.56	959.09 ± 0.57	1355 ± 2	1322 ± 2	8.935 ± 0.14	6.083 ± 0.095
x2 = 0.3511	953.32 ± 0.61	948.95 ± 0.62	944.08 ± 0.64	939.65 ± 0.65	1310 ± 2	1280 ± 2	5.175 ± 0.084	3.762 ± 0.06
x2 = 0.446	937.92 ± 0.67	933.47 ± 0.68	928.39 ± 0.7	923.85 ± 0.72	1276 ± 2	1246 ± 2	3.295 ± 0.053	2.523 ± 0.041
x2 = 0.4973	930.34 ± 0.7	925.83 ± 0.72	920.66 ± 0.73	916.07 ± 0.75	1260 ± 2	1230 ± 2	2.638 ± 0.042	2.071 ± 0.034
x2 = 0.5491	923.15 ± 0.73	918.58 ± 0.75	913.33 ± 0.76	908.68 ± 0.78	1247 ± 2	1217 ± 2	2.141 ± 0.034	1.719 ± 0.028
x2 = 0.6504	910.32 ± 0.78	905.62 ± 0.8	900.23 ± 0.82	895.46 ± 0.83	1226 ± 2	1194 ± 2	1.489 ± 0.024	1.241 ± 0.02
x2 = 0.7495	899.15 ± 0.83	894.34 ± 0.85	888.84 ± 0.87	883.97 ± 0.88	1210 ± 2	1178 ± 2	1.106 ± 0.019	0.947 ± 0.016
x2 = 0.8489	889.19 ± 0.87	884.29 ± 0.89	878.67 ± 0.91	873.72 ± 0.93	1200 ± 2	1165 ± 2	0.87 ± 0.015	0.759 ± 0.013
x2 = 0.946	880.55 ± 0.91	875.62 ± 0.93	869.86 ± 0.95	864.9 ± 0.97	1194 ± 2	1155 ± 2	0.727 ± 0.013	0.64 ± 0.012

CC(O)CO (configuration not stated) [1,2-propanediol] + CCOC(C)=O
Conditions	mass density, 298.15 K [kg/m3]	mass density, 303.15 K [kg/m3]	mass density, 308.15 K [kg/m3]	mass density, 313.15 K [kg/m3]	speed of sound, 298.15 K [m/s]	speed of sound, 308.15 K [m/s]	viscosity, 298.15 K [mPa·s]	viscosity, 308.15 K [mPa·s]
x2 = 0.0451	1024.21 ± 0.35	1020.33 ± 0.36	1016.53 ± 0.37	1012.46 ± 0.38	1463 ± 2	1429 ± 2	32.32 ± 0.44	19.38 ± 0.34
x2 = 0.1493	1005.58 ± 0.42	1001.36 ± 0.43	997.21 ± 0.44	992.76 ± 0.45	1401 ± 2	1371 ± 2	16.84 ± 0.25	11.71 ± 0.16
x2 = 0.2515	988.63 ± 0.48	984.09 ± 0.5	979.68 ± 0.51	974.9 ± 0.52	1343 ± 2	1317 ± 2	9.278 ± 0.13	7.28 ± 0.1
x2 = 0.3514	973.2 ± 0.55	968.36 ± 0.56	963.71 ± 0.57	958.63 ± 0.59	1294 ± 2	1268 ± 2	5.396 ± 0.081	4.653 ± 0.068
x2 = 0.4393	960.46 ± 0.6	955.37 ± 0.61	950.52 ± 0.63	945.17 ± 0.65	1255 ± 2	1229 ± 2	3.463 ± 0.053	3.184 ± 0.048
x2 = 0.5	952.1 ± 0.63	946.85 ± 0.65	941.84 ± 0.66	936.31 ± 0.68	1232 ± 2	1205 ± 2	2.597 ± 0.04	2.469 ± 0.038
x2 = 0.5497	945.49 ± 0.66	940.12 ± 0.68	934.99 ± 0.69	929.3 ± 0.71	1215 ± 2	1186 ± 2	2.075 ± 0.032	2.014 ± 0.031
x2 = 0.6505	932.74 ± 0.71	927.13 ± 0.73	921.75 ± 0.75	915.78 ± 0.77	1186 ± 2	1153 ± 2	1.357 ± 0.022	1.351 ± 0.022
x2 = 0.7495	921.01 ± 0.76	915.21 ± 0.78	909.59 ± 0.8	903.37 ± 0.82	1164 ± 2	1128 ± 2	0.93 ± 0.016	0.928 ± 0.016
x2 = 0.8499	909.87 ± 0.81	903.92 ± 0.83	898.1 ± 0.85	891.68 ± 0.87	1149 ± 2	1109 ± 2	0.661 ± 0.012	0.645 ± 0.011
x2 = 0.9487	899.61 ± 0.85	893.57 ± 0.87	887.61 ± 0.89	881.09 ± 0.91	1140 ± 2	1098 ± 2	0.491 ± 0.009	0.459 ± 0.009

CC(O)CO (configuration not stated) [1,2-propanediol] + COC(C)=O
Conditions	mass density, 298.15 K [kg/m3]	mass density, 303.15 K [kg/m3]	mass density, 308.15 K [kg/m3]	mass density, 313.15 K [kg/m3]	speed of sound, 298.15 K [m/s]	speed of sound, 308.15 K [m/s]	viscosity, 298.15 K [mPa·s]	viscosity, 308.15 K [mPa·s]
x2 = 0.0465	1027.72 ± 0.34	1023.69 ± 0.35	1020.09 ± 0.36	1015.96 ± 0.37	1472 ± 2	1434 ± 2	34.29 ± 0.48	19.21 ± 0.37
x2 = 0.1493	1016.8 ± 0.39	1012.28 ± 0.4	1008.63 ± 0.41	1004.03 ± 0.42	1429 ± 2	1391 ± 2	20.44 ± 0.32	11.62 ± 0.21
x2 = 0.251	1006.23 ± 0.44	1001.34 ± 0.45	997.58 ± 0.46	992.61 ± 0.47	1388 ± 2	1350 ± 2	12.35 ± 0.2	7.189 ± 0.13
x2 = 0.3512	995.96 ± 0.48	990.75 ± 0.49	986.86 ± 0.5	981.59 ± 0.52	1350 ± 2	1313 ± 2	7.576 ± 0.12	4.553 ± 0.086
x2 = 0.4412	986.79 ± 0.52	981.3 ± 0.54	977.29 ± 0.55	971.76 ± 0.56	1318 ± 2	1281 ± 2	4.915 ± 0.083	3.063 ± 0.058
x2 = 0.4906	981.76 ± 0.54	976.11 ± 0.56	972.05 ± 0.57	966.37 ± 0.59	1301 ± 2	1264 ± 2	3.887 ± 0.065	2.478 ± 0.047
x2 = 0.5499	975.7 ± 0.57	969.85 ± 0.59	965.73 ± 0.6	959.87 ± 0.62	1281 ± 2	1244 ± 2	2.939 ± 0.05	1.932 ± 0.035
x2 = 0.6483	965.55 ± 0.61	959.34 ± 0.63	955.15 ± 0.64	949 ± 0.66	1249 ± 2	1211 ± 2	1.859 ± 0.032	1.294 ± 0.023
x2 = 0.7483	955.01 ± 0.66	948.45 ± 0.68	944.2 ± 0.69	937.77 ± 0.71	1218 ± 2	1178 ± 2	1.176 ± 0.021	0.875 ± 0.016
x2 = 0.8499	943.97 ± 0.7	937.1 ± 0.72	932.79 ± 0.74	926.1 ± 0.76	1189 ± 2	1147 ± 2	0.744 ± 0.013	0.598 ± 0.011
x2 = 0.9447	933.26 ± 0.75	926.21 ± 0.77	921.8 ± 0.78	914.96 ± 0.8	1164 ± 2	1119 ± 2	0.489 ± 0.009	0.425 ± 0.008

CC(=O)OCCC(C)C [3-methylbutyl ethanoate] + CC(O)CO
Conditions	mass density, 298.15 K [kg/m3]	mass density, 303.15 K [kg/m3]	mass density, 308.15 K [kg/m3]	mass density, 313.15 K [kg/m3]	speed of sound, 298.15 K [m/s]	speed of sound, 308.15 K [m/s]	viscosity, 298.15 K [mPa·s]	viscosity, 308.15 K [mPa·s]
x1 = 0.0455	1017.21 ± 0.37	1013.29 ± 0.38	1009.48 ± 0.39	1005.69 ± 0.4	1460 ± 2	1425 ± 2	31.61 ± 0.43	18.4 ± 0.34
x1 = 0.1457	988 ± 0.47	983.78 ± 0.48	979.64 ± 0.49	976.02 ± 0.5	1398 ± 2	1369 ± 2	16.42 ± 0.26	10.43 ± 0.16
x1 = 0.2483	963.53 ± 0.56	959.11 ± 0.58	954.73 ± 0.59	951.27 ± 0.6	1346 ± 2	1320 ± 2	8.962 ± 0.14	6.168 ± 0.095
x1 = 0.3508	943.13 ± 0.64	938.57 ± 0.66	934.01 ± 0.67	930.68 ± 0.68	1304 ± 2	1281 ± 2	5.224 ± 0.084	3.864 ± 0.06
x1 = 0.452	926.02 ± 0.71	921.33 ± 0.73	916.63 ± 0.74	913.4 ± 0.75	1270 ± 2	1248 ± 2	3.269 ± 0.052	2.574 ± 0.041
x1 = 0.4959	919.36 ± 0.74	914.62 ± 0.75	909.86 ± 0.77	906.68 ± 0.78	1258 ± 2	1235 ± 2	2.721 ± 0.043	2.196 ± 0.035
x1 = 0.5551	911.01 ± 0.77	906.21 ± 0.79	901.38 ± 0.8	898.24 ± 0.81	1243 ± 2	1220 ± 2	2.165 ± 0.034	1.802 ± 0.029
x1 = 0.6523	898.71 ± 0.82	893.81 ± 0.84	888.88 ± 0.86	885.8 ± 0.87	1223 ± 2	1199 ± 2	1.56 ± 0.025	1.357 ± 0.022
x1 = 0.7497	887.92 ± 0.87	882.93 ± 0.89	877.91 ± 0.9	874.87 ± 0.91	1211 ± 2	1182 ± 2	1.191 ± 0.02	1.075 ± 0.018
x1 = 0.8495	878.28 ± 0.91	873.2 ± 0.93	868.1 ± 0.95	865.12 ± 0.95	1202 ± 2	1169 ± 2	0.961 ± 0.016	0.893 ± 0.015
x1 = 0.9426	870.47 ± 0.95	865.34 ± 0.96	860.17 ± 0.98	857.24 ± 0.99	1197 ± 2	1160 ± 2	0.831 ± 0.014	0.788 ± 0.014

— the NIST ThermoML archive (doi:10.1021/je0340248)
